Patent publication US10568923B2, “Plant parts and extracts having anticoccidial activity” (priority 2012, dated 2020)
Entries after “also recorded” stand apart in the source; their conditions may differ.

Key:
[1] = test system: mixed culture of oocysts of the species E. tenella, E. acervulina and E. maxima; test: In vivo challenge trial in broiler birds with mixed infection of coccidiosis (Examples 3, 10, 13); conditions: Example 10, 11, 22 and 55 ppm
[2] = test system: E. maxima (isolate ID NKL/11/Ac1); test: Example 14: in vivo anticoccidial trial in Cobb 400 broilers challenged with E. maxima; set-up: species or system Eimeria maxima; conditions: day 6 post challenge
Text: The trial was designed with 11 treatment groups with 2 replicates per groups and 12 male birds per replicate. The groups included (1) uninfected control, (2) infected control, (3) positive control groups supplemented with Salinomycin (Coxistac) at the recommended dosage, (4) treatment group treated with 20 and 50 g/ton of pure THB, (5) encapsulated THB at 46.3, 92.6 and 185.2 g/ton of feed, and (6) microemulsion of THB at 138.9, 277.8 and 416.7 g/ton of feed. […] The parameters evaluated were lesion scoring on day 6 post challenge and oocysts shedding on day 7 post-challenge.
The trial was conducted at the R & D poultry farm facility of Kemin Animal Nutrition and Health (India), Gummidipundi. Straight run commercial hybrid broiler chickens, Gallus domesticus (Var. Vencobb 400) were used for the study. Day old male chicks were procured from Shanthi hatcheries, Coimbatore, India. Birds were weighed and examined for general health at receipt. The birds were individually identified by wing bands. The chicks were housed in mild steel cages which were cleaned, disinfected using Virkon S (Du Pont, India) and painted earlier. The birds were provided with ad libitum feed and water. No water sanitizers or antimicrobial compounds were used in the water or in the feed. The experimental design is detailed in Table 13. As this was a preliminary study to evaluate the effect of encapsulated and microemulsion of THB in controlling coccidiosis only 2 replicates were maintained.
The birds were fed with either feed containing no anticoccidial agent, THB, encapsulated THB, microemulsion of THB or Salinomycin (Coxistac, Pfizer, India) incorporated in the feed from day 1. THB was obtained from J P N Pharma, Mumbai, India
The oocysts of E. maxima (isolate ID NKL/11/Ac1) that were maintained at the Department of Veterinary Parasitology, Madras Veterinary College, Chennai were used for the induction of coccidiosis in the trial birds. The origin of the isolate was a broiler bird with clinical coccidiosis, and they were propagated in vivo to yield oocyst quantities sufficient for the study. […]

[3] = test system: sporozoites of Eimeria tenella; test: In vitro anti-sporozoite activity by MTT reduction assay; type: cell-based; conditions: peaks separated by semi-preparative HPLC; compared to crude powder in equivalent concentrations
Method: Further, an in vitro method based on 3-(4,5-Dimethyl-2-thiazolyl)-2,5-diphenyl-2H-tetrazolium bromide (MTT) reduction assay was developed to evaluate the anti-sporozoite activity of plant extracts as a measure of the viability of the sporozoites. The optimized method included the preparation, sterilization and purification of sporozoites, followed by incubation of sporozoite suspension (minimum of 10^5 cells/ml) with required concentration of plant extract. The plant samples were prepared by mixing crude powder into a known volume of distilled water to achieve the specific ppm, vortexed for 2 min and filtered through a 0.2μ syringe filter. Following 24 h of incubation with the plant extracts, the sporozoites were thoroughly washed and then MTT assay was performed. MTT-PMS solution (0.2 millimolar each) is incubated with the sporozoite suspension (at 1:10 ratio) for 2 h at 41° C. […] The purple dye formazan is dissolved in 200 ul DMSO and the absorbance is measured at 530 nm against a reference wavelength of 630 nm.
Q. infectoria gall nut crude powder was fractionated using different solvent by column chromatography. The sample from each of the fractions was evaluated for their anti-sporozoite activity.
These four compounds were separated by semi-preparative HPLC and anti-sporozoite activity was evaluated in comparison to the crude powder in equivalent concentrations.

[4] = Example 15: compatibility with Tiamulin in commercial broilers (Ross 308), 42 days; type: in vivo, Gallus domesticus (Var. Ross 308); conditions: used in combination in feed of broilers
Method: Experimental facility and study design. An in vivo trial was conducted at Ramadootha poultry farm, Hyderabad, India. Straight run commercial hybrid broiler chickens, Gallus domesticus (Var. Ross 308) were used for the study. Day old male chicks were procured from Suguna Broilers, India. The birds were weighed individually, wing banded, and randomly segregated into groups. The experimental design is detailed in Table 18.
Details of treatment groups. The treated birds were fed with supplements incorporated in the feed from day 1 (Table 22).
Parameters analyzed. The parameters that were chosen for analyses were body weight, feed conversion ratio (FCR) on a weekly basis, mortality and leg weakness on daily basis.
Mean body weight. Birds from each of the groups were removed and weighed individually every week to calculate the weight gain. The cumulative average weight gain of the 8 replicates of each of the group was taken as the mean weight/week.
Feed Conversion ratio (FCR). The total feed consumption was monitored regularly and FCR was arrived at by dividing the feed consumed per bird by the final weight per bird.
Mortality. Mortality was recorded on daily basis and the total mortality was calculated and expressed as %. […]
Leg weakness. All birds were examined every day for the major clinical signs, leg weakness which was scored on a 0 to 4 scale. […]

[5] = test system: E. tenella (Houghton strain); test: Example 1 screening trial: Q. infectoria in controlling caecal coccidiosis in broiler chickens; type: in vivo, Eimeria tenella; conditions: day 7 post infection; average of three replicates; Q. infectoria 100 g/ton feed, Coxistac 1000 g/ton
Method: The screening trial was conducted at a poultry farm facility located in Gummidipundi, India. Straight run commercial hybrid broiler chickens, Gallus domesticus (Var. Vencobb 400) were used for the study. Day old male chicks were procured, weighed individually, wing banded, and randomly segregated into groups. The experimental design is detailed in Table 1.
The treated birds were fed with plant extract incorporated in the feed from day 1 (Table 2). The crude powders of Q. infectoria gall nut were procured from Pooja herbs, Mumbai, India. […]
The excreta of the birds were monitored daily from the day 1 post infection to day 10 for their consistency, presence of blood, mucus, undigested feed, and orange color. […]
The mortality of the birds was recorded on a daily basis and post mortem was carried out to confirm the cause of death.
On day 5 and 7 post infection, 2 birds from each of the groups were sacrificed by cervical dislocation and the intestine was cut open. The caeca of the birds were scored for coccidiosis lesions. […]
Triplicate samples of the excreta of the birds were collected randomly from the tray kept below the cages and the oocyst per gram was evaluated.

SMILES	Dose response (lesion score, OPG) [1]	Lesion score for E. tenella, E. maxima and E. acervulina ([1]; day 5 post infection, vs infected control and Salinomycin)	Lesion score (mid-gut) ([2]; pure THB at 25 and 50 ppm)	Lesion score (mid-gut) ([2]; pure THB at 25 and 50 ppm, listed as THB)	Anti-sporozoite activity of the four major HPLC peaks (MTT) [3]	Compatibility with Tiamulin [4]	Average Oocysts Per Gram Excreta [5]	Lesion score (mid-gut) ([2]; Coxistac at 500 g/ton of feed, vs infected control)
O=C(O)c1cc(O)c(O)c(O)c1 (single isomer, unassigned) [gallic acid, 3,4,5-trihydroxybenzoic acid]	Dose dependent response was observed with no significant difference between gallic acid at 22 and 55 ppm	significant reduction in the score for all the three tested species	comparable efficacy	significant improvement in lesions scores when compared to the positive control	best anti-sporozoite activity			
CC[C@@H](C(=O)[C@@H](C)[C@@H](O)[C@H](C)[C@@H]1O[C@@H]([C@@H](CC)C(=O)O)CC[C@@H]1C)[C@H]1O[C@]2(C=C[C@@H](O)[C@]3(CC[C@@](C)([C@H]4CC[C@](O)(CC)[C@H](C)O4)O3)O2)[C@H](C)C[C@@H]1C [Salinomycin, reference compound]						indicates interaction	did not show any indication of reduction of oocysts	no significant reduction; also recorded: showed a reduction in lesion scores
